{"source": "patent US20060034780A1", "about": "“Dental compositions and methods” (The Boots Company, priority 2002, published 2006)", "assay": "Whitening of extracted teeth, CIE whiteness index by image analysis", "method": "Extracted caries-free teeth collected from dental hospitals were briefly brushed to remove any skin tissue attached. The teeth were then sterilized by autoclaving at 121° C. for 25 mins. All teeth were stored in an airtight plastic container containing a solution of Phosphate Buffered Saline (PBS) with a few crystals of thymol as an antibacterial agent until required for use. Twenty four hours before the study, each tooth was glued onto a numbered glass microscope slide. A pellicle was formed on the teeth by soaking in sterilised artificial saliva with the composition set out in Table 1.\nAfter the 24 hr period of pellicle formation, the teeth were then brushed with an Oral B Plaque remover electric toothbrush for 2 mins, with a standard fluoride toothpaste, the composition of which is set out in Table 2:\nExcess toothpaste was removed by briefly rinsing each tooth with deionised water. The teeth were returned to a fresh aliquot of artificial saliva and then measured. The measured whiteness index (determined by image analysis as described below) was taken as the baseline against which subsequent measurements were compared.\n[…] Teeth were returned to a fresh aliquot of artificial saliva and a Post-Bleach measurement taken.\nFWA was applied to the teeth by immersion in a 500 ppm FWA solution (50 mg FWA in 100 ml deionised water stirred for 30 minutes) for 1 hr. The teeth were returned to a fresh aliquot of artificial saliva and a post-FWA measurement taken.\nEach tooth was imaged using a Kodak DCS 410 camera, which was mounted 10 cm above and perpendicular to the specimen, using aperture F11 and a shutter speed of 1/10 second. The standardised lighting source comprised two UV tubes and two 6500K ‘daylight’ tubes. Each image was transferred to Adobe PhotoShop software. For each image, an 8 mm^2 area was analysed and an average Adobe L,a,b reading obtained using the software. All L,a,b values were converted to CIE L*,a*,b* and then to the CIE whiteness index W, using the equation: W=Y+800(xn−x)+1700(yn−y) where Y is the Y-tristimulus value of the specimen, x and y, and xn and yn are the chromaticity coordinates for the specimen and for the perfect diffuser for the CIE 1931 2° Standard Observer, respectively. Results"}
{"compound": "O=S(=O)(O)c1ccccc1C=Cc1ccc(-c2ccc(C=Cc3ccccc3S(=O)(=O)O)cc2)cc1", "note": "[FWA, 4,4′-bis(2-sulfostyryl)biphenyl]", "values": [{"measurement": "change in whiteness index (in words) compared with treatment with H2O2 alone", "setting": "FWA treatment after 15% H2O2 bleaching", "result": "further increase in whiteness"}, {"measurement": "average percentage increase in whiteness index", "setting": "combined treatment using chlorine dioxide (sodium chlorite bleach) and FWA (Tinopal CBS-X), vs baseline", "result": 41, "unit": "%"}, {"measurement": "average percentage increase in whiteness index", "setting": "combined treatment: 15% H2O2 1 hr, then 500 ppm FWA solution 1 hr, vs baseline, six groups of three teeth", "result": 24, "unit": "%"}]}
{"compound": "OO", "note": "[Example H2O2, hydrogen peroxide]", "values": [{"measurement": "average percentage increase in whiteness index", "setting": "H2O2 alone: immersion in 15% hydrogen peroxide solution for 1 hr, vs baseline, six groups of three teeth", "result": 17, "unit": "%"}, {"measurement": "change in whiteness index (in words)", "setting": "treatment with 15% H2O2, each group of teeth, vs baseline", "result": "increase in whiteness index"}]}
{"compound": "sodium chlorite", "values": [{"measurement": "average percentage increase in whiteness index", "setting": "bleach alone: sodium chlorite (generating chlorine dioxide in use) in place of H2O2, vs baseline", "result": 8, "unit": "%"}]}
